Counter-ions that a name gives are not always drawn.
What follows are compounds tested against T1, human V3 receptor (Homo sapiens, UniProt P47901) (assay: [3H]AVP binding to CHO cells stably expressing the human V3 receptor). Settings: Ki from displacement of [3H]AVP (2.5×10^-9 mol.L^-1).
T1 construct: expressed in transfected cells
T1 sequence (P47901 1-424): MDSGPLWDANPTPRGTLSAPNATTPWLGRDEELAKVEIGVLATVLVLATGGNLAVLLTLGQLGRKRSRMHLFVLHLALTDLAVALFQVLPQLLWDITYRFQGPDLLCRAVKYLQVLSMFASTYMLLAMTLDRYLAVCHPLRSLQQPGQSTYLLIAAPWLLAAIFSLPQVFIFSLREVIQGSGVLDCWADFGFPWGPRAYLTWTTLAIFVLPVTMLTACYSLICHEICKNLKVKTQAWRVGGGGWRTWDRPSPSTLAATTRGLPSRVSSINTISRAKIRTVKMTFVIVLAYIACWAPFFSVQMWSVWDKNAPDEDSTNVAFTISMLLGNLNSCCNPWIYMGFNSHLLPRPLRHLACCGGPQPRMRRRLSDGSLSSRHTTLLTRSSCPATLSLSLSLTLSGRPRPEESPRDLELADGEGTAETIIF
Protocol: Chinese Hamster Ovary (CHO) cells stably expressing the human V3 receptor were incubated to equilibrium with the test compound (at a final assay concentration of 10^−11 mol.L^−1 to 10^−5 mol.L^−1) and [^3H]AVP (at a final assay concentration of 2.5×10^−9 mol.L^−1). […] After washing with ice-cold phosphate buffered saline (PBS), scintillation fluid was added and the plates counted on a Topcount NXT apparatus.
A sigmoidal dose response curve (non-linear regression, variable slope) was plotted as concentration of test compound (mol.L^−1) against percentage specific binding of [^3H]AVP and a Ki value was calculated. Each determination was carried out in triplicate and repeated on at least 3 separate occasions

Ki, 10 to 100 nM:
CC(C)NC(=O)Cn1c(-c2cc(F)c(F)c(F)c2)nc2ccc(OCCCN3CCCCC3)cc2c1=O [EXAMPLE 1f, N-Isopropyl-2-[4-oxo-6-(3-piperidin-1-ylpropoxy)-2-(3,4,5-trifluorophenyl)-4H-quinazolin-3-yl]acetamide]
COc1ccc(CN(CCCN2CCCCC2)c2ccc3nc(-c4cccc(OC)c4)n(CC(=O)NC(C)C)c(=O)c3c2)cc1 [EXAMPLE 3r, N-Isopropyl-2-[6-[(4-methoxybenzyl)-(3-piperidin-1-ylpropyl)amino]-2-(3-methoxyphenyl)-4-oxo-4H-quinazolin-3-yl]acetamide]
COc1cccc(-c2nc3ccc(SCCCN4CCCCC4)cc3c(=O)n2CC(=O)NC(C)C)c1 [EXAMPLE 3t, N-Isopropyl-2-[2-(3-methoxyphenyl)-4-oxo-6-(3-piperidin-1-ylpropylsulfanyl)-4H-quinazolin-3-yl]acetamide]
COc1cccc(-c2nc3ccc(OC[C@@H](C)CN4CCC4)cc3c(=O)n2CC(=O)NC(C)C)c1 [EXAMPLE 4i, (S)-(+)-2-[6-(3-Azetidin-1-yl-2-methylpropoxy)-2-(3-methoxyphenyl)-4-oxo-4H-quinazolin-3-yl]-N-isopropylacetamide]

Ki, < 10 nM:
COc1cccc(-c2nc3ccc(OCCCN4CCCCC4)cc3c(=O)n2CC(=O)NC(C)C)n1 [EXAMPLE 1h, N-Isopropyl-2-[2-(6-methoxypyridin-2-yl)-4-oxo-6-(3-piperidin-1-ylpropoxy)-4H-quinazolin-3-yl]acetamide]
CC(C)(C)NC(=O)Cn1c(-c2cccc(Cl)c2)nc2ccc(OCCCN3CCCCC3)cc2c1=O [EXAMPLE 2f, N-tert-Butyl-2-[2-(3-chlorophenyl)-4-oxo-6-(3-piperidin-1-ylpropoxy)-4H-quinazolin-3-yl]acetamide]
COc1cc(-c2nc3ccc(OCCCN4CCC(O)CC4)cc3c(=O)n2CC(=O)NC(C)C)ccc1F [EXAMPLE 2p, 2-{2-(4-Fluoro-3-methoxyphenyl)-6-[3-(4-hydroxypiperidin-1-yl)propoxy]-4-oxo-4H-quinazolin-3-yl}-N-isopropylacetamide]
COc1cccc(-c2nc3cc(C)c(OCCCN4CCCCC4)cc3c(=O)n2CC(=O)NC(C)C)c1 [EXAMPLE 2w, N-Isopropyl-2-[2-(3-methoxyphenyl)-7-methyl-4-oxo-6-(3-piperidin-1-ylpropoxy)-4H-quinazolin-3-yl]acetamide]
CC(C)NC(=O)Cn1c(-c2cccc(Cl)c2)nc2ccc(OCCCN3CCCCC3)cc2c1=O [EXAMPLE 3a, 2-[2-(3-Chlorophenyl)-4-oxo-6-(3-piperidin-1-ylpropoxy)-4H-quinazolin-3-yl]-N-isopropylacetamide hydrochloride]
COc1cc(OC)cc(-c2nc3ccc(OCCCN4CCOCC4)cc3c(=O)n2CC(=O)NCC2CC2)c1 [EXAMPLE 3k, N-Cyclopropylmethyl-2-[2-(3,5-dimethoxyphenyl)-6-(3-morpholin-4-ylpropoxy)-4-oxo-4H-quinazolin-3-yl]acetamide]
CC(C)NC(=O)Cn1c(-c2cccc(F)c2)nc2ccc(OC[C@@H](C)CN3CCOCC3)cc2c1=O [EXAMPLE 4g, (S)-(+)-2-[2-(3-Fluorophenyl)-6-(2-methyl-3-morpholin-4-ylpropoxy)-4-oxo-4H-quinazolin-3-yl]-N-isopropylacetamide]
CCCNC(=O)Cn1c(-c2cccc(OC)c2)nc2ccc(OC[C@@H](C)CN3CCCCC3)cc2c1=O [EXAMPLE 4n, (S)-(+)-2-[2-(3-Methoxyphenyl)-6-(2-methyl-3-piperidin-1-ylpropoxy)-4-oxo-4H-quinazolin-3-yl]-N-propylacetamide]

Ki, 100 to 1000 nM:
O=C(Cn1c(-c2ccccc2)nc2ccc(OCCCN3CCCCCC3)cc2c1=O)NCC1CC1 [EXAMPLE 4q, 2-[6-(3-Azepan-1-ylpropoxy)-4-oxo-2-phenyl-4H-quinazolin-3-yl]-N-cyclopropylmethylacetamide]
